The values below are quoted from earlier work in US20140030308A1, “IMPLANTS AND PROCEDURES FOR PROMOTING AUTOLOGOUS STEM CELL GROWTH” (priority 2012, published 2014).

The conditions of this data set: general statement used to time administration before stent placement.

Regarding `c1cc(CN2CCCNCCNCCCNCC2)ccc1CN1CCCNCCNCCCNCC1` [Prelixafor, 1,1′-[1,4-phenylenebis(methylene)]bis-1,4,8,11-tetraazacyclotetradecane], the half-life entry is listed as “about 8 hours”.
